These results are taken from patent US20260174786A1, “A NITROGEN-CONTAINING SPIROCYCLIC COMPOUND, PHARMACEUTICAL COMPOSITION AND USE THEREOF” (Prime Gene Therapeutics Co., Ltd., priority 2022, published 2026).

Each structure is given as a SMILES string.

Data set [1] can be described thus: Pharmacokinetic experiments in male SD rats. The class given is in vivo, rat. On the procedure: Male SD rats were grouped in groups of 3 rats each and orally administered with the compound of Example (10 mg/kg) and intravenously injected with the compound of Example (2 mg/kg). Animals were fasted overnight before the experiment, from 10 hours before administration to 4 hours after administration. Blood samples were collected at 0.25, 0.5, 1, 2, 4, 8, and 24 hours after administration in the oral group, and at 0.083, 0.25, 0.5, 1, 2, 4, 8, and 24 hours after injection in the intravenous group. After anesthesia with isoflurane using a small animal anesthesia machine, 0.3 mL of whole blood was collected through the retinal venous plexus, and placed in a heparin anticoagulant tube. The sample was centrifuged at 4° C. and 4000 rpm for 5 minutes, and the plasma was transferred to the centrifuge tube and stored at −80° C. until analysis. The plasma samples were extracted using protein precipitation method, and the extract was analyzed by LC-MS/MS.

Data set [2] can be described thus: Permeability experiment of Caco-2 cells. To be noted: human, pH 7.4, Caco-2, 5 μM. The class given is in vitro ADME. On the procedure:
(§1) 1. Transwell plate preheating: before laying cells, adding 100 μL of culture medium to the upper layer of Transwell plate and 600 μL of culture medium to the lower layer of Transwell plate, Pre-incubating at 37° C. under 5% CO2 for 1 hour. 2. Treating Caco-2 cells by adding 100 μL of cell suspension (4×10^5 cells/mL) to each well, and cultivating in a 37° C., 5% CO2 incubator for 14-21 days. 3. Changing the cell culture medium every other day within 7 days, and changing it daily after 7 days. 4. Using EVOM3 to measure single-layer epithelial to epithelial resistance (TEER).
(§2) 1. Preheating HBSS (10 mM HEPES, pH 7.4) buffer, cleaning the upper and lower layers of Transwell plates twice each, and incubating at 37° C. for 30 minutes. 2. Working solution: Diluting the test compound HBSS buffer with 1 mM DMSO to 5 μM. 3. A-B direction: Adding 200 μL of 5 μM working solution to the upper layer and 600 μL of HBSS buffer solution to the lower layer; 4. B-A direction: Adding 600 μL of 5 μM working solution to the lower layer and 200 μL of HBSS buffer to the upper layer, and incubating for 2 hours. 5. C0 sample: Taking 100 μL of working solution to a sample plate containing 400 μL of methanol (internal standard). 6. After incubation for 2 hours, taking 100 μL from the upper and lower layers of the chamber to the sample plates containing 400 μL of methanol (internal standard). 7. Mixing and centrifuging, mixing the supernatant with a certain amount of water, and using the sample for LC-MS/MS data analysis. 8. After completing step 6, adding 200 μL of 100 μM fluorescent yellow solution to the upper chamber and 600 μL of HBSS buffer salt solution to the lower chamber. Incubating at 37° C. and 5% CO2 for 30 minutes, and taking out 50 μL of each into a black plate to read the fluorescence value. 9. Data analysis.

Data set [3] deals with Caco-2 cells. The experiment in a line: Permeability experiment of Caco-2 cells. Format: in vitro ADME. The settings on record: Caco-2, 5 μM. How it is done: as §1, §2
Setting [4] is: male, SD, rat, plasma, intravenous, 2 mg/kg.
Where [5] appears, read: male, SD, rat, plasma, po, gavage, 10 mg/kg.

As to `O=C(c1ccc(F)cn1)N1CCC2(CC(O)c3cc(-c4ccccc4C4CC4)ccc32)C1` (stereo not drawn) [Example 15, (5-(2-cyclopropylphenyl)-3-hydroxy-2,3-dihydrospiro[indene-1,3′-pyrrolidine]-1′-yl)(5-fluoropyridin-2-yl) ketone], in data set [1] (gavage, 10 mg/kg), the F came out at 80.6%. In addition, in data set [1] (setting [4]), the AUC(0-inf) (in general, the area under the concentration-time curve extrapolated to infinity) was determined as 10500 ng·h/mL; the C0 was 4060 ng/mL; the clearance (commonly the rate of elimination divided by the concentration) is 3.3 mL/min/kg; the half-life – broadly, how long it takes for the measured level to halve – was 1.63 h. Also, the Vd in data set [1] (male, SD, rat, plasma, intravenous, 2 mg/kg, read-out: Vss) came to 0.41 L/kg. Besides, in data set [1] (setting [5]), the AUC(0-inf) came out at 42200 ng·h/mL; the Cmax (as a rule, the highest concentration seen after dosing) was 8050 ng/mL; the Tmax (usually the time at which the peak concentration occurs) came out at 1.33 h; the half-life was 1.88 h.

Regarding `O=C(c1ccc(F)cn1)N1CC[C@@]2(C[C@@H](O)c3cc(-c4ccccc4C4CC4)ccc32)C1` [Example 21, ((1S,3R)-5-(2-cyclopropylphenyl)-3-hydroxy-2,3-dihydrospiro[indene-1,3′-pyrrolidine]-1′-yl)(5-fluoropyridin-2-yl)ketone], in data set [2] (2 hours), the Papp A→B (in general, the apparent permeability from the apical to the basolateral side of a cell layer) at 2 h, 5 μM was 20.9 ×10⁻⁶ cm/s and the Papp B→A – broadly, how fast a substance crosses the layer from the basolateral side – at 2 h, 5 μM stood at 9.58 ×10⁻⁶ cm/s. The efflux ratio at 2 h, 5 μM in data set [2] (read-out: External ratio) turned out to be 0.46. In addition, in data set [3], the “Recover A→B %” value was found to be 49.40% and the “Recover B→A %” value worked out at 68.20%.
